Here are results for 24 compounds from patent US11078198B2 (BRISTOL-MYERS SQUIBB COMPANY, priority 2017, dated 2021).

pEC50: −log10 of the molar value.

By pEC50 is commonly meant the EC50 on a negative log10 scale, so that one unit is a factor of ten.

In the test the target is T1, human FXR (Homo sapiens, UniProt Q96RI1).
T1 construct: expressed in transfected cells; host or cells: HEK293 cells stably carrying a 5xGal4-response-element firefly luciferase reporter, transiently transfected with pcDNA3.1-Gal4-FXR
T1 sequence (Q96RI1 262-486 limits assumed): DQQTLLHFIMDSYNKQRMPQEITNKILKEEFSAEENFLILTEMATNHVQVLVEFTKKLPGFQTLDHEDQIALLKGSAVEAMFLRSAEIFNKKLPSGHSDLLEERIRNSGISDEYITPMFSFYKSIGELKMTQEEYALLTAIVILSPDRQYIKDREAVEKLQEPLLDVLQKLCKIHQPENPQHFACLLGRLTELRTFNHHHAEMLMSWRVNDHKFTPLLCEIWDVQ
In words: transient human FXR/Gal4-luciferase reporter assay. The class given is cell-based. As to conditions: Gal4-hFXR transfected HEK293 reporter cells; relative to 8 μM GW-4064. How it is done: A Gal4-hFXR fusion construct reporter system was used as the primary assay to characterize compound activity. A construct including 5 copies of the Gal4 promoter response element upstream of a firefly luciferase reporter cDNA was stably expressed in HEK293 cells. This reporter cell line was maintained in Dulbecco's Modified Eagle's medium (DMEM; Gibco) supplemented with 1% penicillin-streptomycin (P/S) solution, 500 μg/mL Zeocin and 10% charcoal/dextran-treated fetal bovine serum (cs-FBS) at 37° C. in a humidified 5% CO2 atmosphere. Another plasmid was constructed in which the human cytomegalovirus promoter in the pcDNA3.1 vector directs the expression of the cDNA encoding a fusion protein comprised of the DNA binding domain from the Gal4 transcription factor fused to the ligand binding domain from human FXR.
The day prior to transfection, the reporter cells in culture are detached from the plate with trypsin and plated into a T75 flask at a sufficient density to achieve approximately 90% confluence the next morning. The transfection reagents are prepared by separately diluting 25 μg of the pcDNA3.1-Gal4-FXR plasmid into 1.87 mL of Opti-MEM (Thermo-Fisher), and 40 μL of Lipofectamine 2000 (Thermo-Fisher) into 1.87 mL of Opti-MEM, and then adding the diluted DNA solution into the diluted Lipofectamine 2000 solution and incubating at room temperature for 15-20 minutes. The mixture is further diluted with 10 mL of a solution comprised of DMEM, 10% cs-FBS, and 1% P/S immediately prior to transferring to the cells. The maintenance culture media is aspirated from the cells and the final transfection mixture is added before the cells are incubated overnight at 37° C. in a humidified 5% CO2 atmosphere. This protocol can be scaled up, and the transiently transfected cells can be cryopreserved in an assay-ready format.
For compound testing, 100 nL of the compounds (serial dilutions in DMSO) are dispensed with an Echo acoustic dispenser (Labcyte) into the wells of a Corning/Costar clear bottom 384-well white plate. The transfected cells are harvested, counted, and diluted such that 10-25,000 cells in 25 μL are plated into each well of the 384-well compound assay plate. The compound-treated cells are incubated overnight at 37° C. in a humidified 5% CO2 atmosphere.
(In general: Reporter assays use an easily measured gene product as a stand-in for the process of interest.)
`O=C(O)c1cc(F)c2nc(N3[C@@H]4CC[C@H]3CC3(C=C(c5c(-c6c(Cl)cccc6Cl)noc5C5CC5)C3)C4)sc2c1` (mixture of isomers) [Example 11, 2-(3′-(5-Cyclopropyl-3-(2,6-dichlorophenyl)isoxazol-4-yl)-8-azaspiro[bicyclo[3.2.1]octane-3,1′-cyclobutan]-2′-en-8-yl)-4-fluorobenzo[d]thiazole-6-carboxylic acid]: the pEC50 was 6.72.

In the case of `O=C(O)c1ccc(N2[C@@H]3CC[C@H]2CC2(C=C(c4c(-c5c(Cl)cccc5Cl)noc4C4CC4)C2)C3)nc1` (mixture of isomers) [Example 12, 6-(3′-(5-Cyclopropyl-3-(2,6-dichlorophenyl)isoxazol-4-yl)-8-azaspiro[bicyclo[3.2.1]octane-3,1′-cyclobutan]-2′-en-8-yl)nicotinic acid], the pEC50 was 6.74.

Take `CC(C)(C)OC(=O)N1CCC2(CC1)COC(c1c(-c3c(Cl)cccc3Cl)noc1C1CC1)O2` (racemic) [(±)-tert-Butyl 2-(5-cyclopropyl-3-(2,6-dichlorophenyl)isoxazol-4-yl)-1,3-dioxa-8-azaspiro[4.5]decane-8-carboxylate]: the pEC50 is 5.32.

Compound `O=C(O)c1cc(F)c2nc(N3CCC4(C=C(c5c(-c6c(Cl)cccc6Cl)noc5C5CC5)CO4)CC3)sc2c1` [Example 3, 2-(3-(5-Cyclopropyl-3-(2,6-dichlorophenyl)isoxazol-4-yl)-1-oxa-8-azaspiro[4.5]dec-3-en-8-yl)-4-fluorobenzo[d]thiazole-6-carboxylic acid] gave a pEC50 of 6.62.

Compound `O=C(O)c1cccc(N2CCC3(C=C(c4c(-c5c(Cl)cccc5Cl)noc4C4CC4)C3)CC2)n1` [Example 4, 6-(2-(5-Cyclopropyl-3-(2,6-dichlorophenyl)isoxazol-4-yl)-7-azaspiro[3.5]non-1-en-7-yl) picolinic acid] had a pEC50 of 6.15.

Consider `O=C(O)c1ccc(N2CCC3(C=C(c4c(-c5c(Cl)cccc5Cl)noc4C4CC4)C3)CC2)nn1` [Example 5, 6-(2-(5-Cyclopropyl-3-(2,6-dichlorophenyl)isoxazol-4-yl)-7-azaspiro[3.5]non-1-en-7-yl)pyridazine-3-carboxylic acid], for which the pEC50 is 6.50.

As to `Cn1cc(C(=O)O)c2cnc(N3CCC4(C=C(c5c(-c6c(Cl)cccc6Cl)noc5C5CC5)C4)CC3)nc21` [Example 6, 2-(2-(5-Cyclopropyl-3-(2,6-dichlorophenyl)isoxazol-4-yl)-7-azaspiro[3.5]non-1-en-7-yl)-7-methyl-7H-pyrrolo[2,3-d]pyrimidine-5-carboxylic acid], the pEC50 was 7.33.

Compound `Cn1cc(C(=O)O)c2ccc(N3CCC4(C=C(c5c(-c6c(Cl)cccc6Cl)noc5C5CC5)C4)CC3)nc21` [Example 7, 6-(2-(5-Cyclopropyl-3-(2,6-dichlorophenyl)isoxazol-4-yl)-7-azaspiro[3.5]non-1-en-7-yl)-1-methyl-1H-pyrrolo[2,3-b]pyridine-3-carboxylic acid] gave a pEC50 of 7.62.

In turn, `O=C(O)c1cccc(N2CCC3(C=C(c4c(-c5c(Cl)cccc5Cl)noc4C4CC4)C3)CC2)c1` [Example 9, 3-(2-(5-Cyclopropyl-3-(2,6-dichlorophenyl)isoxazol-4-yl)-7-azaspiro[3.5]non-1-en-7-yl)benzoic acid] showed a negative logarithm of the EC50 (pEC50) of 5.38.

In turn, `O=C(O)c1ccc(N2CCC3(C=C(c4c(-c5c(Cl)cccc5Cl)noc4C4CC4)C3)CC2)cc1` [Example 10, 4-(2-(5-Cyclopropyl-3-(2,6-dichlorophenyl)isoxazol-4-yl)-7-azaspiro[3.5]non-1-en-7-yl)benzoic acid] had a pEC50 of 6.87.

`O=C(O)c1ccc(N2CCC3(C=C(c4c(-c5ccccc5Cl)noc4C4CC4)C3)CC2)cc1` [Example 14, 4-(2-(3-(2-Chlorophenyl)-5-cyclopropylisoxazol-4-yl)-7-azaspiro[3.5]non-1-en-7-yl)benzoic acid] showed a pEC50 of 6.05.

The compound `O=C(O)c1cc(F)c2nc(N3C4CCC3CC3(CC(c5c(-c6c(Cl)cccc6Cl)noc5C5CC5)C3)C4)sc2c1` (stereo not drawn) [Example 15, 2-(3′-(5-Cyclopropyl-3-(2,6-dichlorophenyl)isoxazol-4-yl)-8-azaspiro[bicyclo[3.2.1]octane-3,1′-cyclobutan]-8-yl)-4-fluorobenzo[d]thiazole-6-carboxylic acid] gave a pEC50 of 6.52.

`O=C(O)c1ccc(N2C3CCC2CC2(CC(c4c(-c5c(Cl)cccc5Cl)noc4C4CC4)C2)C3)nc1` (stereo not drawn) [Example 16, 6-(3′-(5-Cyclopropyl-3-(2,6-dichlorophenyl)isoxazol-4-yl)-8-azaspiro[bicyclo[3.2.1]octane-3,1′-cyclobutan]-8-yl)nicotinic acid]: the negative logarithm of the EC50 (pEC50) was 6.19.

The compound `O=C(O)c1ccc(N2CCC3(C=C(c4c(-c5ccccc5OC(F)(F)F)noc4C4CC4)C3)CC2)nn1` [Example 18, 6-(2-(5-Cyclopropyl-3-(2-(trifluoromethoxy)phenyl)isoxazol-4-yl)-7-azaspiro[3.5]non-1-en-7-yl)pyridazine-3-carboxylic acid] showed a negative-log EC50 (pEC50) of 5.82.

In the case of `O=C(O)c1cnc(N2CCC3(C=C(c4c(-c5c(Cl)cccc5Cl)noc4C4CC4)C3)CC2)cn1` [Example 19, 5-(2-(5-Cyclopropyl-3-(2,6-dichlorophenyl)isoxazol-4-yl)-7-azaspiro[3.5]non-1-en-7-yl) pyrazine-2-carboxylic acid], the pEC50 was 6.96.

Regarding `O=C(O)c1ccc(N2CCC3(C=C(c4c(-c5ccccc5OC(F)(F)F)noc4C4CC4)C3)CC2)nc1` [Example 21, 6-(2-(5-Cyclopropyl-3-(2-(trifluoromethoxy)phenyl)isoxazol-4-yl)-7-azaspiro[3.5]non-1-en-7-yl) nicotinic acid], the negative-log EC50 (pEC50) is 6.11.

In turn, `O=C(O)c1ncc(N2CCC3(C=C(c4c(-c5c(Cl)cccc5Cl)noc4C4CC4)C3)CC2)cn1` [Example 22, 5-(2-(5-Cyclopropyl-3-(2,6-dichlorophenyl)isoxazol-4-yl)-7-azaspiro[3.5]non-1-en-7-yl) pyrimidine-2-carboxylic acid] had a negative logarithm of the EC50 (pEC50) of 5.82.

`O=C(O)c1ccc2nc(N3CCC4(C=C(c5c(-c6c(Cl)cccc6Cl)noc5C5CC5)C4)CC3)sc2c1` [Example 24, 2-(2-(5-Cyclopropyl-3-(2,6-dichlorophenyl)isoxazol-4-yl)-7-azaspiro[3.5]non-1-en-7-yl)benzo[d]thiazole-6-carboxylic acid]: the pEC50 was 7.77.

Turning to `Cn1c(N2CCC3(C=C(c4c(-c5c(Cl)cccc5Cl)noc4C4CC4)C3)CC2)nc2cc(C(=O)O)ccc21` [Example 25, 2-(2-(5-Cyclopropyl-3-(2,6-dichlorophenyl)isoxazol-4-yl)-7-azaspiro[3.5]non-1-en-7-yl)-1-methyl-1H-benzo[d]imidazole-5-carboxylic acid], the pEC50 was 5.99.

Turning to `O=C(O)c1ccc2oc(N3CCC4(C=C(c5c(-c6c(Cl)cccc6Cl)noc5C5CC5)C4)CC3)nc2c1` [Example 26, 2-(2-(5-Cyclopropyl-3-(2,6-dichlorophenyl)isoxazol-4-yl)-7-azaspiro[3.5]non-1-en-7-yl)benzo[d]oxazole-5-carboxylic acid], the pEC50 was 6.80.

The compound `O=C(O)c1cnc(N2CCC3(C=C(c4c(-c5ccccc5OC(F)(F)F)noc4C4CC4)C3)CC2)c(F)c1` [Example 27, 6-(2-(5-Cyclopropyl-3-(2-(trifluoromethoxy)phenyl)isoxazol-4-yl)-7-azaspiro[3.5]non-1-en-7-yl)-5-fluoronicotinic acid] gave a negative logarithm of the EC50 (pEC50) of 5.96.

The compound `O=C(O)c1cnc(N2CCC3(C=C(c4c(-c5c(Cl)cccc5Cl)noc4C4CC4)C3)CC2)c(F)c1` [Example 28, 6-(2-(5-Cyclopropyl-3-(2,6-dichlorophenyl)isoxazol-4-yl)-7-azaspiro[3.5]non-1-en-7-yl)-5-fluoronicotinic acid] gave a pEC50 of 6.34.

`O=C(O)c1ccc(N2CCC3(C=C(c4c(-c5ccccc5C(F)(F)F)noc4C4CC4)C3)CC2)nc1` [Example 30, 6-(2-(5-Cyclopropyl-3-(2-(trifluoromethyl)phenyl)isoxazol-4-yl)-7-azaspiro[3.5]non-1-en-7-yl) nicotinic acid] gave a pEC50 of 6.96.

On to `O=C(O)CNC(=O)c1ccc(N2CCC3(C=C(c4c(-c5ccccc5C(F)(F)F)noc4C4CC4)C3)CC2)nc1` [Example 31, (6-(2-(5-Cyclopropyl-3-(2-(trifluoromethyl)phenyl)isoxazol-4-yl)-7-azaspiro[3.5]non-1-en-7-yl)nicotinoyl)glycine], for which the pEC50 is 5.28.
